PubChem BioAssay AID330 (DTP/NCI, 2004)
Several values for one entry are separate records, joined by “and”; a condition that tells them apart may be missing. Identical values can stand only once. Inconclusive results and toxic doses are left out. How the source made its calls: active means survival T/C of 150% or more; inactive means T/C below 125% in these data.

System: P388 leukemia ip, CD2F1 mice, survival T/C
Experiment: NCI In Vivo Anticancer Drug Screen. Data for tumor model P388 Leukemia (intraperitoneal) in CD2F1 (CDF1) mice
Details: endpoint: median survival time, higher = longer survival
In short: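 Mice carrying the transplanted tumor received test compound or vehicle. Survival was recorded in each group, and the value is the treated-group measurement divided by that of the vehicle-treated control group.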

[1] = dose: 12.5 mg/kg/injection, schedule: Q01DX005 (ip), vehicle: saline with Tween-80
[2] = dose: 25.0 mg/kg/injection, schedule: Q01DX005 (ip), vehicle: saline with Tween-80
[3] = dose: 50.0 mg/kg/injection, schedule: Q01DX005 (ip), vehicle: saline with Tween-80
[4] = dose: 200.0 mg/kg/injection, schedule: Q01DX005 (ip), vehicle: saline with Tween-80
[5] = dose: 50.0 mg/kg/injection, schedule: Q01DX009 (ip), vehicle: saline with Tween-80
[6] = dose: 50.0 mg/kg/injection, schedule: Q01DX009 (ip), vehicle: saline
[7] = dose: 100.0 mg/kg/injection, schedule: Q01DX009 (ip), vehicle: saline with Tween-80
[8] = dose: 100.0 mg/kg/injection, schedule: Q01DX009 (ip), vehicle: saline
[9] = dose: 200.0 mg/kg/injection, schedule: Q01DX009 (ip), vehicle: saline with Tween-80
[10] = dose: 200.0 mg/kg/injection, schedule: Q01DX009 (ip), vehicle: saline
[11] = dose: 25.0 mg/kg/injection, schedule: Q01DX005 (ip), vehicle: Klucel (hydroxypropylcellulose) (HPC)
[12] = dose: 50.0 mg/kg/injection, schedule: Q01DX005 (ip), vehicle: Klucel (hydroxypropylcellulose) (HPC)
[13] = dose: 100.0 mg/kg/injection, schedule: Q01DX005 (ip), vehicle: Klucel (hydroxypropylcellulose) (HPC)
[14] = dose: 200.0 mg/kg/injection, schedule: Q01DX005 (ip), vehicle: Klucel (hydroxypropylcellulose) (HPC)
[15] = dose: 60.0 mg/kg/injection, schedule: Q01DX005 (ip), vehicle: Klucel (hydroxypropylcellulose) (HPC)
[16] = dose: 120.0 mg/kg/injection, schedule: Q01DX005 (ip), vehicle: Klucel (hydroxypropylcellulose) (HPC)
[17] = dose: 240.0 mg/kg/injection, schedule: Q01DX005 (ip), vehicle: Klucel (hydroxypropylcellulose) (HPC)
[18] = dose: 60.0 mg/kg/injection, schedule: Q01DX005 (ip), vehicle: saline with Tween-80
[19] = dose: 120.0 mg/kg/injection, schedule: Q01DX005 (ip), vehicle: saline with Tween-80
[20] = dose: 240.0 mg/kg/injection, schedule: Q01DX005 (ip), vehicle: saline with Tween-80
[21] = dose: 100.0 mg/kg/injection, schedule: Q01DX005 (ip), vehicle: saline with Tween-80

Measured: T/C

CCOC(=O)C(CSC(c1ccccc1)(c1ccccc1)c1ccccc1)NC(=O)c1csc(CCNC(=O)c2ccccc2)n1 (stereo unspecified)
inactive: dose: 4.0 mg/kg/injection, schedule: Q01DX009 (ip), vehicle: other 100 % of control | dose: 8.0 mg/kg/injection, schedule: Q01DX009 (ip), vehicle: other 99 % of control | dose: 16.0 mg/kg/injection, schedule: Q01DX009 (ip), vehicle: other 91 % of control | dose: 32.0 mg/kg/injection, schedule: Q01DX009 (ip), vehicle: other 89 % of control | dose: 62.5 mg/kg/injection, schedule: Q01DX009 (ip), vehicle: other 113 % of control | dose: 64.0 mg/kg/injection, schedule: Q01DX009 (ip), vehicle: other 89 % of control | dose: 125.0 mg/kg/injection, schedule: Q01DX009 (ip), vehicle: other 108 % of control | dose: 250.0 mg/kg/injection, schedule: Q01DX009 (ip), vehicle: other 108 % of control

O=C(NC(O)C(Cl)(Cl)Cl)c1ccccc1 (stereo unspecified)
inactive: [1] 95 % of control | [2] 102 % of control | [3] 100 % of control | [4] 96 % of control

O=C(CC(=O)C(F)(F)F)c1cccs1
inactive: dose: 6.25 mg/kg/injection, schedule: Q01DX009 (ip), vehicle: saline with Tween-80 100 % of control | dose: 12.5 mg/kg/injection, schedule: Q01DX009 (ip), vehicle: saline with Tween-80 100 % of control and 104 % of control | dose: 25.0 mg/kg/injection, schedule: Q01DX009 (ip), vehicle: saline with Tween-80 103 % of control and 110 % of control | [5] 100 % of control and 111 % of control and 114 % of control

CCOC(=O)C1CCCCC1NC1CCCCC1C(=O)OCC (stereo unspecified)
inactive: dose: 34.5 mg/kg/injection, schedule: Q01DX009 (ip), vehicle: saline with Tween-80 105 % of control | [5] 120 % of control | [6] 103 % of control | [7] 117 % of control | [8] 112 % of control | dose: 138.0 mg/kg/injection, schedule: Q01DX009 (ip), vehicle: saline with Tween-80 107 % of control | [9] 120 % of control | [10] 108 % of control

COC1(OC)/C(=C/Cl)CC2(C)C(=O)NC(=O)C21Cl (stereo unspecified)
inactive: [11] 106 % of control | [12] 105 % of control | [13] 105 % of control | [14] 106 % of control

CC(NNC(=S)N1CC2CCC(CC2)C1)c1nccc2ccccc12 (stereo unspecified)
inactive: [1] 110 % of control | [2] 103 % of control | [3] 119 % of control

CC1=C(O)CC(/C(C)=C\Cl)OC1=O (stereo unspecified)
inactive: dose: 100.0 mg/kg/injection, schedule: Q04DX002 (ip), vehicle: Klucel (hydroxypropylcellulose) (HPC) 101 % of control | dose: 200.0 mg/kg/injection, schedule: Q04DX002 (ip), vehicle: Klucel (hydroxypropylcellulose) (HPC) 98 % of control | dose: 400.0 mg/kg/injection, schedule: Q04DX002 (ip), vehicle: Klucel (hydroxypropylcellulose) (HPC) 104 % of control

COc1cc(NCCCNCC(C)(C)C)c2ncccc2c1
inactive: dose: 1.25 mg/kg/injection, schedule: Q01DX009 (ip), vehicle: Klucel (hydroxypropylcellulose) (HPC) 100 % of control | dose: 2.5 mg/kg/injection, schedule: Q01DX009 (ip), vehicle: Klucel (hydroxypropylcellulose) (HPC) 95 % of control | dose: 5.0 mg/kg/injection, schedule: Q01DX009 (ip), vehicle: Klucel (hydroxypropylcellulose) (HPC) 94 % of control | dose: 10.0 mg/kg/injection, schedule: Q01DX009 (ip), vehicle: Klucel (hydroxypropylcellulose) (HPC) 99 % of control

CCOCC(=O)OC
inactive: [6] 97 % of control | [8] 95 % of control | [10] 100 % of control

O=C1CSC(c2ccc(Cl)c([N+](=O)[O-])c2)N1c1nncs1 (stereo unspecified)
inactive: [15] 99 % of control | [16] 100 % of control | [17] 97 % of control

Cc1ccc(S(=O)(=O)N2CCCN(S(=O)(=O)c3ccc(C)cc3)COC2)cc1
inactive: [15] 102 % of control | [16] 101 % of control | [17] 102 % of control

CCC1(O)CC(OC2CC(N(C)C)C(OC3CC(O)C(O)C(C)O3)C(C)O2)c2c(cc3c(c2O)C(=O)c2c(O)ccc(O)c2C3=O)C1C(=O)OC (stereo unspecified)
inactive: dose: 3.13 mg/kg/injection, schedule: Q04DX003 (ip), vehicle: Klucel (hydroxypropylcellulose) (HPC) 100 % of control | dose: 6.25 mg/kg/injection, schedule: Q04DX003 (ip), vehicle: Klucel (hydroxypropylcellulose) (HPC) 110 % of control | dose: 50.0 mg/kg/injection, schedule: Q04DX003 (ip), vehicle: Klucel (hydroxypropylcellulose) (HPC) 120 % of control

O=c1[nH]cc(I)cc1I
inactive: [7] 95 % of control | [9] 95 % of control | dose: 400.0 mg/kg/injection, schedule: Q01DX009 (ip), vehicle: saline with Tween-80 90 % of control

CCOC(=O)COc1cc2c(cc1C(CC)c1ccccc1)OCO2 (stereo unspecified)
inactive: [12] 97 % of control | [13] 102 % of control | [14] 102 % of control

CC(=O)OC1C2OC3C=C(C)CCC3(CO)C(C)(C1O)C21CO1 (stereo unspecified)
inactive: dose: 0.5 mg/kg/injection, schedule: Q01DX009 (ip), vehicle: saline 95 % of control | dose: 1.0 mg/kg/injection, schedule: Q01DX009 (ip), vehicle: saline 96 % of control | dose: 2.0 mg/kg/injection, schedule: Q01DX009 (ip), vehicle: saline 106 % of control | dose: 4.0 mg/kg/injection, schedule: Q01DX009 (ip), vehicle: saline 112 % of control

CCC(CC)C(=O)NC(=O)NC(N)=O
inactive: [18] 97 % of control | [19] 97 % of control | [20] 112 % of control

CCCCCCCN(CCCCCCC)CCCC(O)c1cccc2ccccc12 (stereo unspecified)
inactive: [1] 104 % of control | [2] 107 % of control | [3] 103 % of control | [21] 107 % of control

COC(=O)C12CCC(C(=O)OC)(CC1)n1c(=O)n(-c3ccccc3)c(=O)n12
inactive: [3] 102 % of control | [21] 102 % of control | [4] 102 % of control

COc1ccc2c3c(c(=O)n(C)c2c1OC)C=CC(C)(C)O3
inactive: [11] 94 % of control | [12] 100 % of control | [13] 100 % of control | [14] 88 % of control

CCOC(=Nc1ccc([N+](=O)[O-])cc1)SC(c1ccccc1)(c1ccccc1)c1ccccc1
inactive: [3] 103 % of control | [21] 91 % of control | [4] 88 % of control

COc1ccc(N(Cc2ccc(C)o2)C(=S)Nc2ccccc2)cc1
inactive: [18] 98 % of control | [19] 102 % of control | [20] 105 % of control

Nc1ncnc2c1ncn2C1OC(CO)C(N)C1O (stereo unspecified)
inactive: dose: 100.0 mg/kg/injection, schedule: Q04DX002 (ip), vehicle: saline with Tween-80 102 % of control | dose: 200.0 mg/kg/injection, schedule: Q04DX002 (ip), vehicle: saline with Tween-80 102 % of control | dose: 400.0 mg/kg/injection, schedule: Q04DX002 (ip), vehicle: saline with Tween-80 105 % of control

O=[N+]([O-])c1cccc(N2CN(c3ccccc3)NC(c3ccccc3)=N2)c1
inactive: dose: 50.0 mg/kg/injection, schedule: Q04DX003 (ip), vehicle: saline with Tween-80 90 % of control | dose: 200.0 mg/kg/injection, schedule: Q04DX003 (ip), vehicle: saline with Tween-80 107 % of control

CC(CCOCCCBr)OC(=O)CCOCCC(=O)OC(C)CCOCCCBr (stereo unspecified)
inactive: [12] 100 % of control | [13] 98 % of control | [14] 100 % of control

CC1(C)OC(=O)C(Cc2c[nH]c3ccccc23)C(=O)O1
inactive: [5] 108 % of control | [7] 100 % of control | [9] 94 % of control

COc1cc(/C=C/C(=O)C(CN(C)C)CN(C)C)cc(OC)c1OC
inactive: dose: 6.25 mg/kg/injection, schedule: Q01DX005 (ip), vehicle: Klucel (hydroxypropylcellulose) (HPC) 100 % of control | dose: 12.5 mg/kg/injection, schedule: Q01DX005 (ip), vehicle: Klucel (hydroxypropylcellulose) (HPC) 103 % of control

CCCCCCC(=O)/C=C/c1cc(Cl)cc(Cl)c1O
inactive: dose: 50.0 mg/kg/injection, schedule: Q01DX009 (ip), vehicle: Klucel (hydroxypropylcellulose) (HPC) 105 % of control | dose: 100.0 mg/kg/injection, schedule: Q01DX009 (ip), vehicle: Klucel (hydroxypropylcellulose) (HPC) 91 % of control | dose: 200.0 mg/kg/injection, schedule: Q01DX009 (ip), vehicle: Klucel (hydroxypropylcellulose) (HPC) 101 % of control
